# Tested on: metabotropic glutamate receptors
# Test: displacement of 1S,3R-ACPD-sensitive [^3 H]glutamate binding to rat brain cell membranes
# Settings: crude membranes of rat forebrain
# Procedure: The binding of [^3 H]glutamate was conducted with crude membranes of rat forebrain as described by Schoepp and True, Neuroscience Lett., 145, 100-104 (1992) and Wright et al., J. Neurochemistry 63, 938-945, 1994.
IC50,Compound,activity in the binding test (in words)
242 nM,"NC1(C(=O)O)CC(Sc2ccccc2)C2C(C(=O)O)C21 (stereo not drawn) [Example 1, 1SR,2RS,4SR,5SR,6SR-2-Amino-4-(phenylthio)bicyclo[3.1.0]hexane-2,6-dicarboxylic acid]",–
–,"NC1(C(=O)O)CC(SCc2ccco2)C2C(C(=O)O)C21 (stereo not drawn) [Example 8, 1SR,2RS,4RS,5SR,6SR-2-Amino-4-((2-furanylmethyl)thio)bicyclo[3.1.0]hexane-2,6-dicarboxylic acid]",essentially inactive

# Source: patent publication US5912248A, “Excitatory amino acid receptor antagonists” (Eli Lilly and Company, priority 1996, dated 1999)
